Active and inactive are the calls of the source. No cut-off for these calls is given here.
Legend:
B16-F10 [1] = test: Induction of apoptosis in mouse B16-F10 cells assessed as early apoptotic cells at 5 uM incubated for 24 hrs by annexin-V-FITC and PI staining based flow cytometry analysis (reference value: 0 %); assay type: functional
[2] = Biodistribution in heart of C57BL/6 mouse model harboring mouse B16-F10 cells at 0.4 mg/kg, iv irradiated with >= 365 nm Hg lamp for 10 mins measured after 24 hrs post-administration by fluorescence based assay; assay type: ADME, organism-based; conditions: in vivo, 24.17 h, time 1450 min
B16-F10 [3] = test: Cytotoxicity against mouse B16-F10 cells assessed as cell viability at 1.25 to 10 uM irradiated with >= 365 nm Hg lamp for 5 mins after 6 hrs post-treatment and further incubated for 72 hrs by MTT assay; assay type: functional; conditions: dose 1.25-10 µM, time 78 hrs
HEK293 [4] = test: Induction of apoptosis in HEK293 cells assessed as necrotic cells at 5 uM with light irradiation incubated for 24 hrs by annexin-V-FITC and PI staining based flow cytometry analysis (reference value: 0 %); assay type: functional, Homo sapiens
[5] = Biodistribution in spleen of C57BL/6 mouse model harboring mouse B16-F10 cells at 0.4 mg/kg, iv irradiated with >= 365 nm Hg lamp for 10 mins measured after 24 hrs post-administration by fluorescence based assay; assay type: ADME, organism-based; conditions: in vivo, 24.17 h, time 1450 min
[6] = Photorelease ability in PBS buffer at pH 7.4 assessed as compound decomposition at 0.1 mM irradiated with pulsed laser at 730 nm for 30 mins by RP-HPLC analysis; assay type: physicochemical; conditions: read-out: Drug degradation
B16-F10 [7] = test: Induction of apoptosis in mouse B16-F10 cells assessed as viable cells at 5 uM with light irradiation incubated for 24 hrs by annexin-V-FITC and PI staining based flow cytometry analysis (reference value: 99.9 %); assay type: functional; conditions: B16-F10, light or radiation study, read-out: Activity
B16-F10 [8] = test: Induction of apoptosis in mouse B16-F10 cells assessed as viable cells at 5 uM incubated for 24 hrs by annexin-V-FITC and PI staining based flow cytometry analysis (reference value: 99.9 %); assay type: functional; conditions: read-out: Activity
B16-F10 [9] = test: Induction of apoptosis in mouse B16-F10 cells assessed as early apoptotic cells at 5 uM with light irradiation incubated for 24 hrs by annexin-V-FITC and PI staining based flow cytometry analysis (reference value: 0 %); assay type: functional
[10] = Toxicity in C57BL/6J mouse model harboring mouse B16-F10 cells assessed as liver tissue necrosis at 0.4 mg/kg, iv administered alternate days for 24 days followed by irradiation with pulsed laser at 730 nm for 10 mins after 24 hrs each post-injection by hematoxylin and eosin staining based assay; assay type: organism-based; conditions: in vivo, 600 h, 0.73 µM, time 25 day
[11] = Drug uptake in mouse B16-F10 cells assessed as drug internalization by measuring blue fluorescence at 20 uM incubated for 4 hrs followed by propidium iodide staining based confocal laser scanning microscopy; assay type: ADME, cell-based; conditions: b16-f10, 4 h
B16-F10 [12] = test: Antitumor activity against mouse B16-F10 cells bearing C57BL/6J mouse assessed as tumor growth inhibition at 0.4 mg/kg, iv administered alternate days for 24 days followed by irradiation with pulsed laser at 730 nm for 10 mins after 24 hrs each post-injection by slide caliper method; assay type: functional, organism-based; conditions: time 25.0 day
[13] = Biodistribution in kidney of C57BL/6 mouse model harboring mouse B16-F10 cells at 0.4 mg/kg, iv irradiated with >= 365 nm Hg lamp for 10 mins measured after 24 hrs post-administration by fluorescence based assay; assay type: ADME, organism-based; conditions: in vivo, 24.17 h, time 1450 min
HEK293 [14] = test: Induction of apoptosis in HEK293 cells assessed as early apoptotic cells at 5 uM with light irradiation incubated for 24 hrs by annexin-V-FITC and PI staining based flow cytometry analysis (reference value: 0.1 %); assay type: functional, Homo sapiens
B16-F10 [15] = test: Induction of apoptosis in mouse B16-F10 cells assessed as necrotic cells at 5 uM with light irradiation incubated for 24 hrs by annexin-V-FITC and PI staining based flow cytometry analysis (reference value: 0 %); assay type: functional
[16] = Toxicity in C57BL/6J mouse model harboring mouse B16-F10 cells assessed as spleen tissue necrosis at 0.4 mg/kg, iv administered alternate days for 24 days followed by irradiation with pulsed laser at 730 nm for 10 mins after 24 hrs each post-injection by hematoxylin and eosin staining based assay; assay type: organism-based; conditions: in vivo, 600 h, 0.73 µM, time 25 day
HEK293 [17] = test: Induction of apoptosis in HEK293 cells assessed as viable cells at 5 uM incubated for 24 hrs by annexin-V-FITC and PI staining based flow cytometry analysis (reference value: 99.9 %); assay type: functional; conditions: Homo sapiens, read-out: Activity
B16-F10 [18] = test: Biodistribution in tumor site of C57BL/6 mouse model harboring mouse B16-F10 cells at 0.4 mg/kg, iv irradiated with >= 365 nm Hg lamp for 10 mins measured after 24 hrs post-administration by fluorescence based assay; assay type: ADME, organism-based; conditions: in vivo, 24.17 h, time 1450 min
[19] = Toxicity in C57BL/6J mouse model harboring mouse B16-F10 cells assessed as change in movement at 0.4 mg/kg, iv administered alternate days for 24 days followed by irradiation with pulsed laser at 730 nm for 10 mins after 24 hrs each post-injection by hematoxylin and eosin staining based assay; assay type: organism-based; conditions: in vivo, 600 h, 0.73 µM, time 25 day
B16-F10 [20] = test: Induction of apoptosis in mouse B16-F10 cells assessed as late apoptotic cells at 5 uM incubated for 24 hrs by annexin-V-FITC and PI staining based flow cytometry analysis (reference value: 0.1 %); assay type: functional
[21] = Photorelease activity in PBS buffer at pH 7.4 assessed as MbCO formation by measuring change in absorbance intensity at 500 uM irradiated with >= 365 nm Hg lamp for 30 mins in presence of deoxy-myoglobin by absorption spectroscopy; assay type: physicochemical; conditions: pH 7.4, 0.5 h
[22] = Toxicity in C57BL/6J mouse model harboring mouse B16-F10 cells assessed as lung tissue necrosis at 0.4 mg/kg, iv administered alternate days for 24 days followed by irradiation with pulsed laser at 730 nm for 10 mins after 24 hrs each post-injection by hematoxylin and eosin staining based assay; assay type: organism-based; conditions: in vivo, 600 h, 0.73 µM, time 25 day
B16-F10 [23] = test: Antitumor activity against mouse B16-F10 cells bearing C57BL/6J mouse assessed as tumor regression at 0.4 mg/kg, iv administered alternate days for 24 days followed by irradiation with pulsed laser at 730 nm for 10 mins after 24 hrs each post-injection and measured on day 25 by slide caliper method; assay type: functional, organism-based; conditions: time 25.0 day
[24] = Stability of compound in PBS buffer at pH 7.4 at 100 uM incubated for 72 hrs under dark condition by RP-HPLC analysis; assay type: physicochemical; conditions: read-out: Stability

SMILES: CCn1c2ccc(-c3coc(=O)o3)cc2c2cc(-c3coc(=O)o3)ccc21
- Activity (B16-F10 [1]): 1%
- Drug uptake [2]: Active
- Activity (B16-F10 [3]): 20%
- Activity (HEK293 [4]): 0%
- Drug uptake [5]: Active
- degraded at 0.5 h, 100 µM [6]: 37%
- viability at 5 µM (B16-F10 [7]): 51.4%
- viability at 5 µM (B16-F10 [8]): 99%
- Activity (B16-F10 [9]): 32.8%
- Activity [10]: Non-Toxic
- Drug uptake [11]: Active
- Activity (B16-F10 [12]): Active
- Drug uptake [13]: Active
- Activity (HEK293 [14]): 46.3%
- Activity (B16-F10 [15]): 0.5%
- Activity [16]: Non-Toxic
- viability at 5 µM (HEK293 [17]): 98.9%
- Drug uptake (B16-F10 [18]): Active
- Activity [19]: Non-Toxic
- Activity (B16-F10 [20]): 0%
- Drug metabolism [21]: Active
- Activity [22]: Non-Toxic
- Activity (B16-F10 [23]): Active
- remaining at 72 h, 100 µM [24]: 96%

From ChEMBL document CHEMBL5042522, “One- and Two-Photon Uncaging of Carbon Monoxide (CO) with Real-Time Monitoring: On-Demand Carbazole-Based Dual CO-Releasing Platform to Test over Single and Combinatorial Approaches for the Efficient Regression of Orthotopic Murine Melanoma In Vivo” (J Med Chem, 2022)
